Structures can show the parent of a compound that is named as a salt.
What was measured:
vertebral blood flow = experiment: Effect on vertebral blood flow; format: in vivo, Adult mongrel dogs; conditions: for ED100: dose required to obtain 100% of the increase of blood flow by 100 µg of papaverine hydrochloride, injected in the vertebral artery, anesthetized dogs; for T 1/2: half-life measured as the duration of effects on vertebral blood flow
Protocol: Pharmacological experiment 3: Effect on vertebral blood flow Adult mongrel dogs were anesthetized with sodium pentobarbital (25 mg/kg, i.v.). The right vertebral artery was perfused and the blood flow was measured. Test compound was injected in the vertebral artery. […] Half-life (T 1/2, minute) was measured as the duration of effects.

[1] = test system: spontaneously hypertensive rats; experiment: Effect on hypertension (tail cuff method); format: in vivo, male spontaneously hypertensive rats; conditions: 30 mg/kg orally
Protocol: Pharmacological experiment 5: Effect on hypertension
(§1) Each of 30 mg/kg of test compounds A and Q was orally administered to five male spontaneously hypertensive rats and the blood pressure was measured by the tail cuff method. The blood pressure lowering value after 1 hour administration of test compound A was 48 mmHg and that value after 5 hours administration of test compound Q was 64 mmHg. Pharmacological experiment 6: Anticholinergic activity

Trachea of guinea pig = experiment: Anticholinergic activity (ACh-contracted tracheal strip chain preparation)
Protocol: as §1
Trachea of guinea pig, weighing 380-550 g, was isolated and prepared its strip chain preparation. The preparation was mounted in organ bath filled with Krebs-Henseleit solution gassed with 95% 02 and 5% CO2. Length of the preparation was measured by isometric transducer (MEC, ME-4012). The preparation was contracted by 10^-6 M of acetylcholine (ACh) and then, test compounds were added cumulatively into the bath to observe relaxant effect.
(§2) Pharmacological experiment 7: Toxicity

liver mitochondria = experiment: Effect on lipid peroxidation (malondialdehyde formation in liver mitochondria, thiobarbituric acid method); format: biochemical, Male Sprague-Dawley rats; conditions: 50% inhibitory concentration on the formation of malondialdehyde; ascorbic acid, ferrous sulfate; 25°C for 30 minutes
Protocol: Pharmacological experiment 4: Effect on lipid peroxidation
Male Sprague-Dawley rats weighing 300-350 g were used. According to the method of Shimada et al described in Biochim. Biophys. Acta, vol. 572, 531 (1979), the liver mitochondria were isolated and ascorbic acid, ferrous sulfate, potassium chloride and Tris-HC1 buffer were added. To the solution was added test compound dissolved in dimethyl sulfoxide, and the mixture was incubated at 25°C for 30 minutes. The amount of malondialdehyde was determined by the thiobarbituric acid method and the 50% inhibitory concentration (IC50, µmol) of test compound on the formation of malondialdehyde was measured.

ddY strain mice = format: in vivo; conditions: mouse, in vivo, po, 1000 mg/kg
Excerpt: as §2
Test compounds A, B, C, E and S were orally administered to five ddY strain mice.

coronary blood flow = experiment: Effect on coronary blood flow; format: in vivo, Adult mongrel dogs
Protocol: Pharmacological experiment 2: Effect on coronary blood flow Adult mongrel dogs were anesthetized with sodium pentobarbital (30 mg/kg, i.v.). According to the method of Yago et al described in Folia Pharmacol. Japon, vol. 57, 380 (1961), the left coronary artery was perfused and its blood flow was measured. […] The half-life (T 1/2, minute) was measured as the duration of effects.

| SMILES | ED100 (vertebral blood flow) | T 1/2 (vertebral blood flow) | blood pressure lowering value ([1]; after 5 hours) | relaxant effect on ACh-contracted preparation (Trachea of guinea pig; 10^-7-10^-5M) | IC50 (Trachea of guinea pig; Cavia porcellus, preparation contracted by 10^-6 M of acetylcholine (ACh), cumulative addition, read-out: 50% inhibitory concentration (IC50) on ACh-induced contraction) | IC50 (liver mitochondria) | survival (ddY strain mice) | ED50 (coronary blood flow; dose required to increase the coronary blood flow by a half of the effects of nifedipine, injected into the coronary artery, anesthetized dogs) | T 1/2 (coronary blood flow; half-life measured as the duration of effects on coronary blood flow) | blood pressure lowering value ([1]; after 1 hour) |
| --- | --- | --- | --- | --- | --- | --- | --- | --- | --- | --- |
| CCN(CC)Cc1cnc2n1C(c1cccc([N+](=O)[O-])c1)C(C(=O)OC(CN1CCCCC1)c1ccccc1)=C(C)N2 (single isomer, unassigned) [Compound Q, 2-Piperidino-1-phenylethyl 3-diethylaminomethyl-7-methyl-5-(3-nitrophenyl)-5,8-dihydroimidazo [1,2-a]pyrimidine-6-carboxylate (β-form)] | 18 µg | 4.0 min | 64 mmHg |  |  |  |  |  |  |  |
| CCN(CC)Cc1cnc2n1C(c1cccc([N+](=O)[O-])c1)C(C(=O)OC)=C(C)N2 (stereo not drawn) [Compound A, Methyl 3-diethylaminomethyl-7-methyl-5-(3-nitrophenyl)-5,8-dihydroimidazo[l,2-a]pyrimidine-6-carboxylate hydrochloride] | 2 µg | 0.9 min |  | relaxed ACh-contracted preparation in a concentration-dependent manner | 1.6 µM | 50 µM | All mice were survived | 2 µg | 1.0 min | 48 mmHg |
